Results from ChEMBL document CHEMBL4819024, “Synthesis and evaluation of andrographolide derivatives as potent anti-osteoporosis agents in vitro and in vivo” (Eur J Med Chem, 2021).
Active and inactive are the calls of the source. No cut-off for these calls is given here.

Tests used:
BMMC [1] = experiment: Anti-osteoporosis activity in C57BL/6 mouse BMM cells assessed as inhibition of M-CSF/RANKL-induced osteoclastogenesis by measuring reduction in multinucleated TRAP+ cells incubated for 5 days with media replenishment for every 48 hrs measured by TRAP-staining based analysis; type: functional, cell-based; conditions: C57BL/6, BMMC
[2] = Cytotoxicity against C57BL/6 mouse BMM cells assessed as reduction in cell viability measured after 48 hrs in presence of M-CSF by CCK8 assay; type: cell-based, BMMC; conditions: BMM cells (bone marrow-derived)
Mus musculus [3] = experiment: Antiosteoporotic activity against OVX-induced bone loss C57BL/6 mouse model assessed as decrease in trabecular spacing in femoral metaphysis at 10 mg/kg, po QD for 4 weeks; type: functional, organism-based; conditions: dose 10.0 mg/kg/day
Mus musculus [4] = experiment: Antiosteoporotic activity against OVX-induced bone loss C57BL/6 mouse model assessed as increase in trabecular number in femoral metaphysis at 10 mg/kg, po QD for 4 weeks; type: functional, organism-based; conditions: dose 10.0 mg/kg/day
Mus musculus [5] = experiment: Antiosteoporotic activity against OVX-induced bone loss C57BL/6 mouse model assessed as increase in trabecular thickness in femoral metaphysis at 10 mg/kg, po QD for 4 weeks; type: functional, organism-based; conditions: dose 10.0 mg/kg/day
Mus musculus [6] = experiment: Antiosteoporotic activity against OVX-induced bone loss C57BL/6 mouse model assessed as increase in bone volume/total bone volume in femoral metaphysis at 10 mg/kg, po QD for 4 weeks; type: functional, organism-based; conditions: dose 10.0 mg/kg/day
Mus musculus [7] = experiment: Antiosteoporotic activity against OVX-induced bone loss C57BL/6 mouse model assessed as decrease in ACP5 level in serum at 10 mg/kg, po QD for 4 weeks; type: functional, organism-based; conditions: dose 10.0 mg/kg/day
BMMC [8] = experiment: Anti-osteoporosis activity in C57BL/6 mouse BMM cells assessed as inhibition of M-CSF/RANKL-induced bone resorption by measuring suppression of reabsorbing pits formation after 48 hrs by hydroxyapatite assay using Leica inverted microscope; type: functional, cell-based; conditions: dose 1-10 µM

Q: With `C=C1CC[C@@H]2[C@](C)(CNCc3cccc(OC)c3)[C@H](O)CC[C@@]2(C)[C@@H]1/C=C/C1=CCOC1=O` as the compound, how does the IC50 (BMMC [1]) read?
A: Its IC50 is 0.78 µM.

Q: Which IC50 (BMMC [1]) does the source give for `C=C1CC[C@@H]2[C@](C)(CNCc3nccs3)[C@H](O)CC[C@@]2(C)[C@@H]1/C=C/C1=CCOC1=O` here?
A: Its IC50 is 0.7 µM.

Q: With `C=C1CC[C@@H]2[C@](C)(CNCc3cccs3)[C@H](O)CC[C@@]2(C)[C@@H]1/C=C/C1=CCOC1=O` as the compound, how does the IC50 (BMMC [1]) read?
A: Its IC50 is 1.07 µM.

Q: Which IC50 (BMMC [1]) does the source give for `C=C1CC[C@H]2[C@@](C)(CC[C@@H](O)[C@@]2(C)C(=O)NCCc2ccccc2)[C@@H]1/C=C/C1=CCOC1=O` here?
A: The IC50 was > 30 µM.

Q: With `C=C1CC[C@H]2[C@@](C)(CC[C@@H](O)[C@@]2(C)C(=O)NCCc2ccc(OC)cc2)[C@@H]1/C=C/C1=CCOC1=O` as the compound, how does the IC50 (BMMC [1]) read?
A: The IC50 was > 30 µM.

Q: For `C=C1CC[C@@H]2[C@](C)(CNCc3ccncc3)[C@H](O)CC[C@@]2(C)[C@@H]1/C=C/C1=CCOC1=O`, which IC50 (BMMC [1]) is on record?
A: The IC50 was 2.03 µM.

Q: With `C=C1CC[C@@H]2[C@](C)(CO)[C@H](O)CC[C@@]2(C)[C@@H]1CC=O` as the compound, how does the IC50 (BMMC [1]) read?
A: Its IC50 is > 30 µM.

Q: What about the CC50 at 48 h [2] of the same compound?
A: The CC50 at 48 h was > 30 µM.

Q: For `C=C1CC[C@@H]2[C@](C)(CNCc3ccc(OC)cc3)[C@H](O)CC[C@@]2(C)[C@@H]1/C=C/C1=CCOC1=O`, which IC50 (BMMC [1]) is on record?
A: The IC50 was 0.75 µM.

Q: With `C=C1CC[C@H]2[C@@](C)(CC[C@@H](O)[C@@]2(C)C(=O)NCCc2ccc(F)cc2)[C@@H]1/C=C/C1=CCOC1=O` as the compound, how does the IC50 (BMMC [1]) read?
A: Its IC50 is > 30 µM.

Q: Which IC50 (BMMC [1]) does the source give for `C=C1CC[C@H]2[C@@](C)(CC[C@@H](O)[C@@]2(C)C(=O)NCc2ccc(Br)cc2)[C@@H]1/C=C/C1=CCOC1=O` here?
A: Its IC50 is 3.45 µM.

Q: With `C=C1CC[C@@H]2[C@](C)(CNCc3ccc(O)c(O)c3)[C@H](O)CC[C@@]2(C)[C@@H]1/C=C/C1=CCOC1=O` as the compound, how does the IC50 (BMMC [1]) read?
A: Its IC50 is 9.44 µM.

Q: Which IC50 (BMMC [1]) does the source give for `C=C1CC[C@@H]2[C@](C)(CNCCc3ccc(OC)cc3)[C@H](O)CC[C@@]2(C)[C@@H]1/C=C/C1=CCOC1=O` here?
A: The IC50 was 1.88 µM.

Q: For `C=C1CC[C@@H]2[C@](C)(CNCCc3ccc(C)cc3)[C@H](O)CC[C@@]2(C)[C@@H]1/C=C/C1=CCOC1=O`, which IC50 (BMMC [1]) is on record?
A: Its IC50 is 0.87 µM.

Q: With `C=C1CC[C@H]2[C@@](C)(CC[C@@H](O)[C@@]2(C)C(=O)NCc2ccccc2)[C@@H]1/C=C/C1=CCOC1=O` as the compound, how does the IC50 (BMMC [1]) read?
A: Its IC50 is 19.4 µM.

Q: With `C=C1CC[C@@H]2[C@](C)(CNCCc3ccc(C(F)(F)F)cc3)[C@H](O)CC[C@@]2(C)[C@@H]1/C=C/C1=CCOC1=O` as the compound, how does the IC50 (BMMC [1]) read?
A: The IC50 was 2.98 µM.

Q: For `C=C1CC[C@@H]2[C@](C)(CNCc3ccc(OC)c(OC)c3)[C@H](O)CC[C@@]2(C)[C@@H]1/C=C/C1=CCOC1=O`, which IC50 (BMMC [1]) is on record?
A: The IC50 was 3.74 µM.

Q: For `C=C1CC[C@H]2[C@@](C)(CC[C@@H](O)[C@@]2(C)C(=O)NCCc2cccs2)[C@@H]1/C=C/C1=CCOC1=O`, which IC50 (BMMC [1]) is on record?
A: The IC50 was > 30 µM.

Q: Which results are given for `C=C1CC[C@@H]2[C@](C)(CO)[C@H](O)CC[C@@]2(C)[C@@H]1C/C=C1/C(=O)OC[C@H]1O` [ANDROGRAPHOLIDE]?
A: Activity (Mus musculus [3]): Active; Activity (Mus musculus [4]): Active; Activity (Mus musculus [5]): Active; IC50 (BMMC [1]): 1.01 µM; Activity (Mus musculus [6]): Active; CC50 at 48 h [2]: 10.3 µM; Activity (Mus musculus [7]): Active; Activity (BMMC [8]): Active

Q: With `C=C1CC[C@@H]2[C@](C)(CNCc3ccc([N+](=O)[O-])cc3)[C@H](O)CC[C@@]2(C)[C@@H]1/C=C/C1=CCOC1=O` as the compound, how does the IC50 (BMMC [1]) read?
A: The IC50 was 1.34 µM.

Q: With `NCCCC(O)(P(=O)(O)O)P(=O)(O)O` [ALENDRONATE SODIUM] as the compound, how does the IC50 (BMMC [1]) read?
A: Its IC50 is 1.71 µM.

Q: For `C=C1CC[C@@H]2[C@](C)(CO)[C@H](O)CC[C@@]2(C)[C@@H]1CCC1C(=O)OC[C@H]1O` (stereo partly drawn), which IC50 (BMMC [1]) is on record?
A: The IC50 was > 30 µM.

Q: And the CC50 at 48 h [2]?
A: Its CC50 at 48 h is > 30 µM.

Q: With `C=C1CC[C@@H]2[C@](C)(CNCCc3ccccc3)[C@H](O)CC[C@@]2(C)[C@@H]1/C=C/C1=CCOC1=O` as the compound, how does the IC50 (BMMC [1]) read?
A: Its IC50 is 1.02 µM.

Q: For `C=C1CC[C@H]2[C@@](C)(CC[C@@H](O)[C@@]2(C)C(=O)NCc2ccc(OC)cc2)[C@@H]1/C=C/C1=CCOC1=O`, which IC50 (BMMC [1]) is on record?
A: The IC50 was 6.53 µM.

Q: With `C=C1CC[C@@H]2[C@](C)(CNCc3ccc(Br)cc3)[C@H](O)CC[C@@]2(C)[C@@H]1/C=C/C1=CCOC1=O` as the compound, how does the IC50 (BMMC [1]) read?
A: Its IC50 is 0.43 µM.

Q: With `C=C1CC[C@@H]2[C@](C)(CNCc3ccc(C)cc3)[C@H](O)CC[C@@]2(C)[C@@H]1/C=C/C1=CCOC1=O` as the compound, how does the IC50 (BMMC [1]) read?
A: The IC50 was 0.74 µM.

Q: What does the source list for `C=C1CC[C@@H]2[C@](C)(CO)[C@H](O)CC[C@@]2(C)[C@@H]1C/C=C(/C(=O)O)[C@H](O)CO`?
A: IC50 (BMMC [1]): > 30 µM; CC50 at 48 h [2]: > 30 µM

Q: Which IC50 (BMMC [1]) does the source give for `C=C1CC[C@@H]2[C@](C)(CNCCc3cccs3)[C@H](O)CC[C@@]2(C)[C@@H]1/C=C/C1=CCOC1=O` here?
A: The IC50 was 3.02 µM.

Q: With `C=C1CC[C@@H]2[C@](C)(CNCCc3cccc(OC)c3)[C@H](O)CC[C@@]2(C)[C@@H]1/C=C/C1=CCOC1=O` as the compound, how does the IC50 (BMMC [1]) read?
A: Its IC50 is 5.45 µM.

Q: With `C=C1CC[C@@H]2[C@](C)(CNCc3ccccc3)[C@H](O)CC[C@@]2(C)[C@@H]1/C=C/C1=CCOC1=O` as the compound, how does the IC50 (BMMC [1]) read?
A: Its IC50 is 0.96 µM.

Q: For `C=C1CC[C@@H]2[C@](C)(CNCc3ccco3)[C@H](O)CC[C@@]2(C)[C@@H]1/C=C/C1=CCOC1=O`, which IC50 (BMMC [1]) is on record?
A: The IC50 was 1.83 µM.

Q: Which IC50 (BMMC [1]) does the source give for `C=C1CC[C@@H]2[C@](C)(CO)[C@H](O)CC[C@@]2(C)[C@@H]1C/C=C1\C=COC1=O` here?
A: Its IC50 is 2.77 µM.

Q: And the CC50 at 48 h [2]?
A: Its CC50 at 48 h is 20.6 µM.

Q: For `C=C1CC[C@@H]2[C@](C)(CNCCc3ccc(F)cc3)[C@H](O)CC[C@@]2(C)[C@@H]1/C=C/C1=CCOC1=O`, which IC50 (BMMC [1]) is on record?
A: Its IC50 is 0.48 µM.

Q: What does the source list for `C=C1CC[C@@H]2[C@](C)(CO)[C@H](O)CC[C@@]2(C)[C@@H]1/C=C/C1=CCOC1=O`?
A: IC50 (BMMC [1]): 8.34 µM; CC50 at 48 h [2]: > 30 µM

Q: For `C=C1CC[C@@H]2[C@](C)(CNCc3ccc4c(c3)CC=N4)[C@H](O)CC[C@@]2(C)[C@@H]1/C=C/C1=CCOC1=O`, which IC50 (BMMC [1]) is on record?
A: The IC50 was 0.55 µM.

Q: Which IC50 (BMMC [1]) does the source give for `C=C1CC[C@@H]2[C@](C)(CNCc3ccc(Cl)cc3)[C@H](O)CC[C@@]2(C)[C@@H]1/C=C/C1=CCOC1=O` here?
A: The IC50 was 0.42 µM.

Q: For `C=C1CC[C@@H]2[C@](C)(CNCc3ccc(C#N)cc3)[C@H](O)CC[C@@]2(C)[C@@H]1/C=C/C1=CCOC1=O`, which IC50 (BMMC [1]) is on record?
A: The IC50 was 1.13 µM.
